Test results reported in US20190322643A1 (Georgia State University Research Foundation, Inc., priority 2016, published 2019).

How the values were obtained:
[1] = target: T1, Mouse histone methyltransferase G9a (969-1263) (Mus musculus, UniProt Q9Z148); assay: MALDI-TOF methylation study of G9a inhibition; format: biochemical; details: inhibitors at 5 μM concentration for 30 min
T1 construct: The 6His-sumo mG9a (969-1263) protein was purified using the following procedure; 6His-sumo (cleaved yes); made in house; host or cells: Escherichia coli BL21 (DE3)
T1 sequence (Q9Z148 969-1263): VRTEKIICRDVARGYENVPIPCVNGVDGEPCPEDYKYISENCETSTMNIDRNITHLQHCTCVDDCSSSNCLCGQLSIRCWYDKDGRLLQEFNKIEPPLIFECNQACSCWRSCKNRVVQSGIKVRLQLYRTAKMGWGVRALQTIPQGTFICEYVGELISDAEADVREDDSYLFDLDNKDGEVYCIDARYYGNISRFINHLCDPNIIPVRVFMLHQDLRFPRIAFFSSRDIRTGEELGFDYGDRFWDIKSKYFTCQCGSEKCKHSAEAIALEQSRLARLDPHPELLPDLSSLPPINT
Experimental: Mouse histone methyltransferase G9a (969-1263) cDNA was amplified from the cDNA of BALB/c mouse thymus, and the fragment was sub-cloned into a vector with a 6His-sumo tag. […] The 6His-sumo mG9a (969-1263) protein was purified using the following procedure: harvested cell pellet was re-suspended in 20 mM Tris (pH 8.0), 500 mM NaCl, 0.1% β-mercaptoethanol, and 1 mM PMSF. Cells were lysed by sonicating for 15 seconds with 6 second intervals for a total time of 15 minutes on an ice bath. […] The 6His-sumo tag was cleaved from the column by adding Ubiquitin-like-specific protease 1 (ULP-1) at 4° C. for 12 hours. Wash buffer was then run through the Ni^+ column again and the elution buffer collected. Subsequently, advanced protein purification was done by HiTrap Q HP sequential Superdex 200 10/300 GL. Elute of every step was analyzed by SDS PAGE, stained by Coomassie brilliant blue (CBB). […] The reaction was incubated at room temperature for 30 min, and stopped by TFA. 1 μL of the sample was mixed with CHCA matrix and m/z peaks were obtained at reflection positive mode. The results of mass spectrum were analyzed using the Bruker flex analysis software and data processing was carried out as described below. MALDI-TOF based experiments were performed according to the protocol developed by Chang et al. (Nat. Struct. Mol. Biol. 2009, 16, 312-317). MALDI spectra were collected using Bruker flex control software and analyzed by flex analysis. After labelling each cluster peaks of H3K9Me0, H3K9Me1 and H3K9Me2 for all of the tested concentrations, area under the cluster (AUC) were extracted by using the same flex analysis software. % abundance of each peak was calculated by following formula: A=% Abundance of (H3K9Me0)=area of H3K9Me0/(area of H3K9Me0+area of H3K9Me1+area of H3K9Me2) B=% Abundance of (H3K9Me1)=area of H3K9Me1/(area of H3K9Me0+area of H3K9Me1+area of H3K9Me2) C=% Abundance of (H3K9Me2)=area of H3K9Me2/(area of H3K9Me0+area of H3K9Me1+area of H3K9Me2). This was repeated for each spectra (3 multiples for each samples). […] Finally % inhibition was found by subtracting % MA(i) from 100. […] A biochemical assay using MALDI-TOF was used to visualize the effects of the synthesized compounds on G9a enzymatic activity. […] Struct. Mol. Biol. 2009, 16, 312-317).

G9a = target: T2, G9a (Homo sapiens, UniProt Q96KQ7); assay: H3K9Me2 cell immunofluorescence in-cell Western (ICW) assay; format: cell-based; details: MDA-MB-231 cell line, 48 h
T2 construct: endogenous in cells; host or cells: MDA-MB-231
T2 sequence (Q96KQ7 1-1210): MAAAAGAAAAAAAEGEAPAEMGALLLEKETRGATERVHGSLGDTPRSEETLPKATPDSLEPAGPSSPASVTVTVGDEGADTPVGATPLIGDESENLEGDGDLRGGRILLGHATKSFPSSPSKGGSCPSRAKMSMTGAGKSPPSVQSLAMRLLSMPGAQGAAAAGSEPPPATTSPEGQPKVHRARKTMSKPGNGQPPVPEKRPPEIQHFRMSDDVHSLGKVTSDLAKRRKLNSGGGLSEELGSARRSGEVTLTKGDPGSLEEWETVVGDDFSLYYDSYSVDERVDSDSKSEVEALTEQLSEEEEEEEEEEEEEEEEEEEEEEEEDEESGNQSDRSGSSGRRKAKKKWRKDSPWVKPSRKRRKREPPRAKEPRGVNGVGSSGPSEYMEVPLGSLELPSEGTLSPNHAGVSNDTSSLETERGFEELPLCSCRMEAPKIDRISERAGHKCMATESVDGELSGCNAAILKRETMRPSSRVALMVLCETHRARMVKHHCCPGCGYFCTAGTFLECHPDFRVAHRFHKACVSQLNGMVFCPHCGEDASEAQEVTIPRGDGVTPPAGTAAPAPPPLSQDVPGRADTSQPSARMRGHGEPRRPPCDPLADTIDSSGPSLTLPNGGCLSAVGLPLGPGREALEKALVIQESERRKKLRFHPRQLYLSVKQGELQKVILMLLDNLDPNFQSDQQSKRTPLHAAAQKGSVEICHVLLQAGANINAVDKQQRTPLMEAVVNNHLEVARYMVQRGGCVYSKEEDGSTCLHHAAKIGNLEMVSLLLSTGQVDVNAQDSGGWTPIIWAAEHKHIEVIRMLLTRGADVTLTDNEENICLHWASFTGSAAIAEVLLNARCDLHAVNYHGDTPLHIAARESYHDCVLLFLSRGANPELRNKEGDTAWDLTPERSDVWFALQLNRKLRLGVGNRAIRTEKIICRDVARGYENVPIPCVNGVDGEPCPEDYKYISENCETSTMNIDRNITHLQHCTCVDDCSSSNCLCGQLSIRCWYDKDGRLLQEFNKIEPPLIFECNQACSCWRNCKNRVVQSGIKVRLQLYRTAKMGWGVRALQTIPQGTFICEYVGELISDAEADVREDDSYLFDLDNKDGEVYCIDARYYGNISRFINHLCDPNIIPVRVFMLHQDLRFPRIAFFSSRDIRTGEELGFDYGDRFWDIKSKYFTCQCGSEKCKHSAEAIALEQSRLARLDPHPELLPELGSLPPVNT
Experimental: After the incubation, the media was removed and 100 μl fixation and permeabilization solution (2% formaldehyde in PBS) for fixation was added for 30 min. And then use 200 μl 0.1% Triton X100 in PBS washing solution to wash (allow wash to shake on a plate shaker for 5 minutes). After five washes, cells were blocked for 1 h with 150 μl blocking buffer to each well (1% BSA in PBS) (allow blocking at RT with moderate shaking on a plate shaker). After 1 h, remove the blocking buffer from the blocking step and add primary antibody in blocking buffer to cover the bottom of each well. […] The plates were read on an Odyssey CLX (LiCor) scanner at both 800 nm (H3K9me2 signal) and 700 nm (cell tag 700 stain signal) channels. IC50s were calculated using GraphPad Prizm statistical package with sigmoidal variable slope dose response curve fit.

A549 = assay: Cytotoxicity / anti-proliferation assay (CCK-8), A549; format: cell-based; details: Homo sapiens, 72 h, CCK-8 kit
Experimental: (§1) Then the cells were exposed to the different inhibitors with various concentrations for 72 h. […] EC50s were calculated using GraphPad Prizm statistical package with sigmoidal variable slope dose response curve fit.
(§2) Cell anti-proliferation assays were performed to determine the toxicity of these inhibitors. […] These compounds were further evaluated against the control cell line HEK293 to test their toxicity with a non-cancerous cell line.

HCT-8 = assay: Cytotoxicity / anti-proliferation assay (CCK-8), HCT-8; format: cell-based; details: Homo sapiens, 72 h, CCK-8 kit
Experimental: as §1, §2

HDAC [2] = assay: Cell based homogenous HDAC assay, Hela; details: read-out: IC50-HDAC Hela; Hela cells, mean ± SD of triplicate
Experimental: (§3) After 24 h, 9 μl inhibitors with different concentration were added to the HeLa cells and incubation was continued for 3 h under cell culture conditions. After this treatment period, 10 μl of a 2 mM stock solution of the substrate Boc-K(Ac)-AMC was added into the 96 well plates with Hela cells and inhibitors. […] A549 and K562 cell lines used the same method, respectively. IC50s were calculated using GraphPad Prizm statistical package with sigmoidal variable slope dose response curve fit.
(§4) Boc-K(Ac)-AMC was used as a cell-permeable HDAC substrate, as after deacetylation it is cleaved by trypsin to release the florescent 7-amino-4-methylcoumarin (AMC).

HDAC [3] = assay: Cell based homogenous HDAC assay, A549; details: read-out: IC50-HDAC A549; A549 cells, mean ± SD of triplicate
Experimental: as §3, §4

HDAC [4] = assay: Cell based homogenous HDAC assay, K562; details: read-out: IC50-HDAC K562; K562 cells, mean ± SD of triplicate
Experimental: as §3, §4

Row | Compound | inhibition at 5 µM [1] [%] | IC50 (G9a) [µM] | IC50 (HDAC [2]) [µM] | IC50 (HDAC [3]) [µM] | IC50 (HDAC [4]) [µM] | EC50 (A549) [µM] | EC50 (HCT-8) [µM]
1 | COc1cc2nc(NCCNC(=O)CCCCC(=O)NO)nc(NC3CCN(C(C)C)CC3)c2cc1OC [Compound 6a, N1-hydroxy-N6-(2-((4-((1-isopropylpiperidin-4-yl)amino)-6,7-dimethoxyquinazolin-2-yl)amino)ethyl)adipamide] | 50.6 ± 16.5 | > 100 | > 100 | > 100 | > 100 | > 100 | > 100
2 | COc1ccc2c(NC3CCN(Cc4ccccc4)CC3)nc(NCCNC(=O)CCCC(=O)NO)nc2c1 [Compound 16, N1-(2-((4-((1-benzylpiperidin-4-yl)amino)-7-methoxyquinazolin-2-yl)amino)ethyl)-N5-hydroxyglutaramide] | 40.3 ± 13.8 | 90.3 ± 3.75 | – | – | – | – | 83.9
3 | COc1ccc2c(NC3CCN(Cc4ccccc4)CC3)nc(NCCNC(=O)CCCCC(=O)NO)nc2c1 [Compound 15, N1-(2-((4-((1-benzylpiperidin-4-yl)amino)-7-methoxyquinazolin-2-yl)amino)ethyl)-N6-hydroxyadipamide] | 47.9 ± 12.9 | 72.1 ± 1.37 | – | – | – | > 100 | > 100
4 | COc1cc2nc(NCCNC(=O)CCCCCC(=O)NO)nc(NC3CCN(C)CC3)c2cc1OC [Compound 5, N1-(2-((6,7-dimethoxy-4-((1-methylpiperidin-4-yl)amino)quinazolin-2-yl)amino)ethyl)-N7-hydroxyheptanediamide] | 65 ± 1.95 | > 100 | > 100 | > 100 | > 100 | > 100 | > 100
5 | COc1cc2nc(N3CCCN(C)CC3)nc(NC3CCN(C(=O)CCCCCC(=O)NO)CC3)c2cc1OC [Compound 20, 7-(4-((6,7-dimethoxy-2-(4-methyl-1,4-diazepan-1-yl)quinazolin-4-yl)amino)piperidin-1-yl)-N-hydroxy-7-oxoheptanamide] | 14.6 ± 15.8 | 97.5 ± 2.78 | – | – | – | > 100 | > 100
6 | COc1cc2nc(NCCNC(=O)CCCCCCC(=O)NO)nc(NC3CCN(C)CC3)c2cc1OC [Compound 4, N1-(2-((6,7-dimethoxy-4-((1-methylpiperidin-4-yl)amino)quinazolin-2-yl)amino)ethyl)-N8-hydroxyoctanediamide] | 27 ± 12.2 | 96.7 ± 1.68 | > 100 | > 100 | > 100 | > 100 | > 100
7 | COc1ccc2c(NCCNC(=O)CCCCCCC(=O)NO)nc(N3CCCN(C)CC3)nc2c1 [Compound 21, N1-hydroxy-N8-(2-((7-methoxy-2-(4-methyl-1,4-diazepan-1-yl)quinazolin-4 yl)amino)ethyl)octanediamide] | 22.8 ± 26.7 | – | – | – | – | > 100 | > 100

Second part, led by results:

Row | inhibition at 5 µM [1] [%] | IC50 (G9a) [µM] | IC50 (HDAC [2]) [µM] | IC50 (HDAC [3]) [µM] | IC50 (HDAC [4]) [µM] | Compound | EC50 (A549) [µM] | EC50 (HCT-8) [µM]
8 | 40.3 ± 13.8 | 45.7 ± 1.76 | – | – | – | COc1ccc2c(NC3CCN(C)CC3)nc(NCCNC(=O)CCCC(=O)NO)nc2c1 [Compound 16a, N1-hydroxy-N5-(2-((7-methoxy-4-((1-methylpiperidin-4-yl)amino)quinazolin-2-yl)amino)ethyl)glutaramide] | > 100 | > 100
9 | 10.7 ± 25.9 | 99.6 ± 3.13 | – | – | – | COc1cc2nc(N3CCCN(C)CC3)nc(NC3CCN(C(=O)CCCCCCC(=O)NO)CC3)c2cc1OC [Compound 19, 8-(4-((6,7-dimethoxy-2-(4-methyl-1,4-diazepan-1-yl)quinazolin-4-yl)amino)piperidin-1-yl)-N-hydroxy-8-oxooctanamide] | > 100 | > 100
10 | 69.1 ± 24.5 | 47 ± 3.33 | – | – | – | COc1ccc2c(NC3CCN(C)CC3)nc(NCCNC(=O)CCCCC(=O)NO)nc2c1 [Compound 15a, N1-hydroxy-N6-(2-((7-methoxy-4-((1-methylpiperidin-4-yl)amino)quinazolin-2-yl)amino)ethyl)adipamide] | > 100 | > 100
11 | 40.3 ± 15.3 | 60.6 ± 3.66 | – | – | – | COc1ccc2c(NCCNC(=O)CCCCCC(=O)NO)nc(N3CCCN(C)CC3)nc2c1 [Compound 22, N1-hydroxy-N7-(2-((7-methoxy-2-(4-methyl-1,4-diazepan-1-yl)quinazolin-4-yl)amino)ethyl)heptanediamide] | > 100 | > 100
12 | 29.7 ± 23.3 | 46.8 ± 1.97 | – | – | – | COc1ccc2c(NC3CCN(C)CC3)nc(NCCNC(=O)CCCCCC(=O)NO)nc2c1 [Compound 14a, N1-hydroxy-N7-(2-((7-methoxy-4-((1-methylpiperidin-4-yl)amino)quinazolin-2yl)amino)ethyl) heptanediamide] | > 100 | > 100
